Read-outs that look alike come from different tables or passages of the source.
How the values were obtained:
Mouse sarcoma S180 cells [1] = test: antitumor activity in mouse cancer cell transplant model after intraperitoneal administration; assay type: in vivo, mice; details: for tumor weight, % of that of the control group: intraperitoneal, once every two days, 7 times
Procedure: (§1) The test compound CA-1 was suspended at predetermined concentrations in 1% CMC. The vehicle (1% CMC) was administered to the control group.
(§2) Mouse sarcoma S180 cells were suspended at 1×10^7 cells/mL in a serum-free RPMI culture medium and the suspension was kept on ice. Then, the S180 cell suspension was subcutaneously inoculated at 1×10^6 cells/100 μL/mouse into the flanks of female ddY mice (5-week old) with an injection needle of 23G. The mice were maintained for one week for engraftment of the S180 cells. Subsequently, the test compound (5 mg/kg, 10 mg/kg and 25 mg/kg) or the vehicle (1% CMC) was intraperitoneally administered on a schedule of on every two days, 7 times in total. The antitumor activity was evaluated as follows: one day after the final administration, tumors were isolated and weighed, and then the tumor weight was compared between the test compound administration groups and the control group.

[2] = test system: human umbilical vein endothelial cells (HUVEC); test: migration and tubulogenesis of HUVEC; assay type: cell-based
Mouse sarcoma S180 cells [3] = test: antitumor activity in mouse cancer cell transplant model after oral administration; assay type: in vivo, mice; details: for tumor weight, % of that of the control group: oral
Procedure: as §1, §2
The test was performed in the same manner as in Example 3, except that oral administration was performed instead of intraperitoneal administration and that a 50 mg/kg administration group was included instead of the 5 mg/kg administration group.

[4] = test system: Matrigel with proangiogenic factor bFGF (angiogenesis); test: in vivo anti-angiogenic activity after oral administration (Matrigel, hemoglobin); parameters: species or system mice
Procedure: (§3) The test compound CA-1 was suspended at predetermined concentrations in 1% CMC. To control groups, the vehicle (1% CMC) was administered.
(§4) To 500 μL of Matrigel (trade name, manufactured by BD), 200 ng/mL of a proangiogenic factor bFGF (basic fibroblast growth factor) and 100 U/mL of heparin were added, and the mixture was subcutaneously injected into the flanks of female ddY mice (6-week old) with an injection needle of 23G. After the Matrigel injection, the test compound CA-1 or the vehicle (1% CMC) was intraperitoneally administered on a schedule of once every two days, 5 times in total. Aside from this, Matrigel without bFGF was injected into a group of mice and then the vehicle was administered thereto (negative control group). The anti-angiogenic effect was evaluated as follows: the day after the final administration of the test compound, the implanted Matrigel was harvested and weighed, and then the amount of hemoglobin accumulated in the Matrigel was compared between the test compound administration groups and the control groups. Significance analysis was performed using a Dunnett's test at a significance level of 5%.
The test was performed in the same manner as in Example 3, except that oral administration was performed instead of intraperitoneal administration and that a 5.0 mg/kg administration group was additionally included.

[5] = test system: normal human umbilical vein endothelial cells (HUVEC); test: anti-proliferative activity against HUVEC (WST-8); assay type: cell-based; details: for selective anti-proliferative activity against vascular endothelial cells: HUVEC versus KB3-1, FIGS. 8 to 12; for IC50: Homo sapiens, HUVEC, 72 hours culture with compound, WST-8; for S.I. (Selective Index): IC50 against KB3-1 divided by IC50 against HUVEC
Procedure: (§5) CA-1, which is represented by formula (II), was used as test compound, and an existing anticancer drug doxorubicin was used as a control compound. The test compound and the control compound were separately dissolved at predetermined concentrations in EtOH. The cells used were normal human umbilical vein endothelial cells (HUVEC) and human pharyngeal carcinoma KB3-1 cells.
(§6) HUVEC and KB3-1 were seeded in separate 96-well multiwell plates at 2×10^3 cells/100 μL/well and cultured in an atmosphere of 5% CO2 at 37° C. for 24 hours. Next, 1.0 μL each of the ethanol solutions containing the test compound or the control compound at various concentrations were added, and the cells were cultured under the same conditions for additional 72 hours. After 72 hours, 10 μL of WST-8 (2-(2-methoxy-4-nitrophenyl)-3-(4-nitrophenyl)-5-(2,4-disulfophenyl)-2H-tetrazolium, monosodium salt) reagent was added. After 3-hour incubation, the amount of water-soluble formazan formed in viable cells was calorimetrically determined by measurement at OD 450 nm, and the growth inhibition ratio was calculated by comparison of the amount of formazan between the compound treatment groups and the non-treatment group. The anti-proliferative activities of the test compound and the control compound on each type of cells were expressed as a 50% growth inhibitory concentration (IC50 value). The cell type selectivity (Selective Index (S. I.) value) was expressed as a value resulting from division of the IC50 value against KB3-1 by the IC50 value against HUVEC.
CA-1, CA-2, CA-3, CA-4 and CA-5 were evaluated for anti-proliferative activity against normal human umbilical vein endothelial cells (HUVEC) and human pharyngeal carcinoma KB3-1 cells. The five test compounds were separately dissolved at predetermined concentrations in EtOH. HUVEC and KB3-1 were seeded in separate 96-well multiwell plates at 2×10^3 cells/100 μL/well and cultured in an atmosphere of 5% CO2 at 37° C. for 24 hrs. Next, 1.0 μL each of the ethanol solutions containing the test compound or the control compound at various concentrations were added, and the cells were cultured under the same conditions for additional 72 hours. After 72 hours, 10 μL of WST-8 (2-(2-methoxy-4-nitrophenyl)-3-(4-nitrophenyl)-5-(2,4-disulfophenyl)-2H-tetrazolium, monosodium salt) reagent was added. After 3-hour incubation, the amount of water-soluble formazan formed in viable cells was colorimetrically determined measurement at OD 450 nm, and the growth inhibition ratio was calculated by comparison of the amount of formazan between the compound treatment groups and the non-treatment group.

[6] = test system: Matrigel with proangiogenic factor bFGF (angiogenesis); test: in vivo anti-angiogenic activity after intraperitoneal administration (Matrigel, hemoglobin); details: not less than 10 mg/kg, once every two days, 5 times, ddY mice
Procedure: as §3, §4

[7] = test system: human pharyngeal carcinoma KB3-1 cells; test: anti-proliferative activity against KB3-1 (WST-8); assay type: cell-based; details: KB 3-1, 72 hours culture with compound
Procedure: as §5
as §6, with “After 72 hours, 10 μL of WST-8 (2-(2-methoxy-4-nitrophenyl)-3-(4-nitrophenyl)-5-(2,4-disulfophenyl)-2H-tetrazolium, monosodium salt) reagent was added.” left out, “The anti-proliferative activities of the test compound and the control compound on each type of cells were expressed as a 50% growth inhibitory concentration (IC50 value).” left out
CA-1, CA-2, CA-3, CA-4 and CA-5 were evaluated for anti-proliferative activity against normal human umbilical vein endothelial cells (HUVEC) and human pharyngeal carcinoma KB3-1 cells. […]

[8] = test system: human umbilical vein endothelial cells (HUVEC); details: cited from earlier work
[9] = test system: human umbilical vein endothelial cells (HUVEC); details: background art; cited from earlier work

SMILES: C[C@]12C=CC3=CC4=C(CCCC4=O)O[C@H]3[C@@H]1CC[C@@H]2c1ccc2ccncc2c1 [CA-1, (3R,3aR,11aS,11bR)-3-(isoquinolin-7-yl)-3a-methyl-1,2,3,3a,9,10,11a,11b-octahydrocyclopenta[c]xanthen-7(8H)-one]
- tumor weight, % of that of the control group (Mouse sarcoma S180 cells [1]; 5 mg/kg): 34%
- tumor weight, % of that of the control group (Mouse sarcoma S180 cells [1]; 10 mg/kg): 23%
- tumor weight, % of that of the control group (Mouse sarcoma S180 cells [1]; 25 mg/kg): 17%
- weight loss, diarrhea, visual abnormalities in organs (Mouse sarcoma S180 cells [1]; intraperitoneal, 5, 10 and 25 mg/kg groups): In no groups, weight loss or diarrhea, or visual abnormalities in organs of the mice were observed
- migration and tubulogenesis of HUVEC [2]: inhibits the migration and tubulogenesis of human umbilical vein endothelial cells (HUVEC)
- tumor weight, % of that of the control group (Mouse sarcoma S180 cells [3]; 10 mg/kg): 67%
- tumor weight, % of that of the control group (Mouse sarcoma S180 cells [3]; 25 mg/kg): 50%
- tumor weight, % of that of the control group (Mouse sarcoma S180 cells [3]; 50 mg/kg): 25%
- weight loss, diarrhea, visual abnormalities in organs (Mouse sarcoma S180 cells [3]; oral, 10, 25 and 50 mg/kg groups): In no groups, weight loss or diarrhea, or visual abnormalities in organs of the mice were observed
- amount of hemoglobin accumulated in the Matrigel ([4]; 50 mg/kg): reduced to almost the same level as that of the group injected with Matrigel not supplemented with the proangiogenic factor bFGF
- amount of hemoglobin accumulated in the Matrigel ([4]; not less than 10 mg/kg): significantly reduced the amount of hemoglobin accumulated in the Matrigel
- selective anti-proliferative activity against vascular endothelial cells [5]: selectively inhibits the growth of vascular endothelial cells
- IC50 [5]: 100 nM
- S.I. (Selective Index) [5]: 105
- anti-proliferative activity against vascular endothelial cells, times stronger than against other cancer cells ([5]; versus other cancer cells): more than 100 times
- amount of hemoglobin accumulated in the Matrigel [6]: significantly reduced the amount of hemoglobin accumulated in the Matrigel to almost the same level as that of the group injected with Matrigel not supplemented with the proangiogenic factor bFGF
- IC50 [7]: 10500 nM

SMILES: C[C@]12C=CC3=CC4=C(CC(CO)CC4=O)O[C@H]3[C@@H]1CC[C@@H]2c1ccc2ccncc2c1 (stereo partly drawn) [CA-2, (3R,3aR,11aS,11bR)-9-(hydroxymethyl)-3-(isoquinolin-7-yl)-3a-methyl-1,3,3a,8,9,10,11a,11b-octahydrocyclopenta[c]xanthen-7(2H)-one]
- selective anti-proliferative activity against vascular endothelial cells [5]: selectively inhibits the growth of vascular endothelial cells
- selective anti-proliferative activity against vascular endothelial cells ([5]; listed as (XVIII)): selective anti-proliferative activity against vascular endothelial cells in a broad range of concentration

SMILES: C[C@]12C=CC3=CC4=C(CC(CN)CC4=O)O[C@H]3[C@@H]1CC[C@@H]2c1ccc2ccncc2c1 (stereo partly shown) [CA-3]
- selective anti-proliferative activity against vascular endothelial cells [5]: selectively inhibits the growth of vascular endothelial cells
- selective anti-proliferative activity against vascular endothelial cells ([5]; listed as (XIX)): selective anti-proliferative activity against vascular endothelial cells in a broad range of concentration

SMILES: C[C@]12C=CC3=CC4=C(CC(C(=O)O)CC4=O)O[C@H]3[C@@H]1CC[C@@H]2c1ccc2ccncc2c1 (stereo partly drawn) [CA-4, (3R,3aR,11aS,11bR)-3-(isoquinolin-7-yl)-3a-methyl-7-oxo-1,2,3a,7,8,9,10,11a,11b-decahydrocyclopenta[c]xanthene-9-carboxylic acid]
- selective anti-proliferative activity against vascular endothelial cells [5]: selectively inhibits the growth of vascular endothelial cells
- selective anti-proliferative activity against vascular endothelial cells ([5]; listed as (XXIII)): selective anti-proliferative activity against vascular endothelial cells in a broad range of concentration

SMILES: C[C@]12C=CC3=CC4=C(CCCC4=O)O[C@H]3[C@@H]1CC(=O)[C@@H]2c1ccc2ccncc2c1 [CA-5, (3R,3aS,11aS,11bR)-3-(isoquinolin-7-yl)-3a-methyl-1,3,3a,9,10,11b-hexahydrocyclopenta[c]xanthene-2,7(8H,11aH)-dione]
- selective anti-proliferative activity against vascular endothelial cells [5]: selectively inhibits the growth of vascular endothelial cells
- selective anti-proliferative activity against vascular endothelial cells ([5]; listed as (LIV)): selective anti-proliferative activity against vascular endothelial cells in a broad range of concentration

SMILES: CN(C)[C@H]1C[C@@]23CC[C@@]4(O2)C(=CC[C@]2(C)[C@@H](c5ccc6ccncc6c5)CC[C@H]24)C=C3[C@@H](O)[C@@H]1O [cortistatin A]
- IC50 ([8]; background art, read-out: IC50 against HUVEC): 1.8 nM
- anti-proliferative activity against HUVEC, times stronger than against other cancer cells ([8]; versus other cancer cells): more than 3000 times
- migration and tubulogenesis of HUVEC [9]: inhibits the migration and tubulogenesis of HUVEC

SMILES: COc1cccc2c1C(=O)c1c(O)c3c(c(O)c1C2=O)C[C@@](O)(C(=O)CO)C[C@@H]3O[C@H]1C[C@H](N)[C@H](O)[C@H](C)O1 [doxorubicin, reference compound]
- IC50 [5]: 130 nM
- S.I. (Selective Index) [5]: 2.7
- IC50 [7]: 360 nM

From patent US8791263B2, “Cortistatin A analog and use thereof” (Osaka University, priority 2010, dated 2014)
